# Data published in PMC8306566 (Marine Drugs, 2021).
# Assays:
# Experiment in all cases: cell-based
# rα3β2 nAChR = rα3β2 nAChR (Rattus norvegicus, UniProt P04757+P12390)
# rα9α10 nAChR = rα9α10 nAChR (Rattus norvegicus, UniProt P43144+Q9JLB5)
# rα7 nAChR = rα7 nAChR (Rattus norvegicus, UniProt Q05941)
# rα3β4 nAChR = rα3β4 nAChR (Rattus norvegicus, UniProt P04757+P12392); assay type: cell-based
# rα6/α3β4 nAChR = rα6/α3β4 nAChR (Rattus norvegicus, UniProt P04757+P12392+P43143)
# rα4β2 nAChR = rα4β2 nAChR (Rattus norvegicus, UniProt P09483+P12390)
# rα2β4 nAChR = rα2β4 nAChR (Rattus norvegicus, UniProt P12389+P12392)
# rα6/α3β2β3 nAChR = rα6/α3β2β3 nAChR (Rattus norvegicus, UniProt P04757+P12390+P12391+P43143)
# rα4β4 nAChR = rα4β4 nAChR (Rattus norvegicus, UniProt P09483+P12392)
# rα2β2 nAChR = rα2β2 nAChR (Rattus norvegicus, UniProt P12389+P12390)
# Sequence of rα2β2 nAChR (P12389 28-511 limits assumed): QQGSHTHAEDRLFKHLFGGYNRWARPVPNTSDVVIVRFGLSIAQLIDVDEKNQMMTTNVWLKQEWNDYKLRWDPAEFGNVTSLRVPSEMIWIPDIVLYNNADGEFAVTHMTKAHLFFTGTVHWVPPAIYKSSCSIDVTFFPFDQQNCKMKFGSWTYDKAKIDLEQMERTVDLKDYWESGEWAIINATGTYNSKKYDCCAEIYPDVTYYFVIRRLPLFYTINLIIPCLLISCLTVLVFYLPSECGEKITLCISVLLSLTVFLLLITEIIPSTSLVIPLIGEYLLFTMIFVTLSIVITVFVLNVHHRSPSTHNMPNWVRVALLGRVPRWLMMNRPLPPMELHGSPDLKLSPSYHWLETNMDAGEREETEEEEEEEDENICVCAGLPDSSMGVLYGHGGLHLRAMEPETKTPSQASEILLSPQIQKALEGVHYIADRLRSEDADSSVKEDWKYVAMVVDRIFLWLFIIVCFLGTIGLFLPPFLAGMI
# Sequence of rα2β2 nAChR (P12390 25-500 limits assumed): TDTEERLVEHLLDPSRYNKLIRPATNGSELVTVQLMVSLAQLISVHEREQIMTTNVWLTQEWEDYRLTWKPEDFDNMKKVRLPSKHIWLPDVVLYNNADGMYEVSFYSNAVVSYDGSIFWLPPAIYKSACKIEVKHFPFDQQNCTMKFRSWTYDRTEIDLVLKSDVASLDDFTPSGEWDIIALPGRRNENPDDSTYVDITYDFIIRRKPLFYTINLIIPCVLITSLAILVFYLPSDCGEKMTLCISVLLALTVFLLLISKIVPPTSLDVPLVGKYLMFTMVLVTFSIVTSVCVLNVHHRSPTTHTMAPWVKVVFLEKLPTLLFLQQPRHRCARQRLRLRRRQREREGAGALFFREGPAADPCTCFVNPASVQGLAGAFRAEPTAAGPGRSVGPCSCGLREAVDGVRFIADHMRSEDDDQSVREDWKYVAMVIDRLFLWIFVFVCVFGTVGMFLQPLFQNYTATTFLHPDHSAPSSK
# Sequence of rα6/α3β2β3 nAChR (P04757 whole entry, looked up): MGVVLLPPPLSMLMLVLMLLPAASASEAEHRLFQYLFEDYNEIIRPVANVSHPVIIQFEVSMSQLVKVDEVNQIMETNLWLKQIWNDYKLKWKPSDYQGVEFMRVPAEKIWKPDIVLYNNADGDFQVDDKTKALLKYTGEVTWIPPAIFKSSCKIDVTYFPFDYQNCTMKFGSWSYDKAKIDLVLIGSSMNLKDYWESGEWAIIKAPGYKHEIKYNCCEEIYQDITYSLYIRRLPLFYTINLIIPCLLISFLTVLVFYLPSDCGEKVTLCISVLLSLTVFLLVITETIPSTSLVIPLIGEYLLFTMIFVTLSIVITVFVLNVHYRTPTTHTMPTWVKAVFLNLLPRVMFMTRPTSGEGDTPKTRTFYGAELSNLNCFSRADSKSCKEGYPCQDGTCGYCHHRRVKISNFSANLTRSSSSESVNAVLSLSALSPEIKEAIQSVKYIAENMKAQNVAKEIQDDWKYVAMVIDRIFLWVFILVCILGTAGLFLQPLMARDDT
# Sequence of rα6/α3β2β3 nAChR (P12390 whole entry, looked up): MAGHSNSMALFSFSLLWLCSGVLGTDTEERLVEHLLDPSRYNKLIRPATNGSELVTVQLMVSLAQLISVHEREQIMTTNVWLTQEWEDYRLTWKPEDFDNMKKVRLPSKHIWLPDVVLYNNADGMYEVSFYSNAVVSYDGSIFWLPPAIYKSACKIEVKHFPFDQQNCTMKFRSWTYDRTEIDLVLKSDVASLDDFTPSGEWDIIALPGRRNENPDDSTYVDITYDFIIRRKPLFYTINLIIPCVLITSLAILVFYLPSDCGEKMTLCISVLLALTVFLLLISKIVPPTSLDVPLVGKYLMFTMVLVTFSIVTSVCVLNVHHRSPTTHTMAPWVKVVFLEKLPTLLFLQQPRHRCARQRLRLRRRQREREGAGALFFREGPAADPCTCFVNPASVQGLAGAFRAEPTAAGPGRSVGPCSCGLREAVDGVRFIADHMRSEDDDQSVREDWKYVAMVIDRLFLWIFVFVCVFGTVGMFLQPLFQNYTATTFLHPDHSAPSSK
# Sequence of rα6/α3β2β3 nAChR (P12391 whole entry, looked up): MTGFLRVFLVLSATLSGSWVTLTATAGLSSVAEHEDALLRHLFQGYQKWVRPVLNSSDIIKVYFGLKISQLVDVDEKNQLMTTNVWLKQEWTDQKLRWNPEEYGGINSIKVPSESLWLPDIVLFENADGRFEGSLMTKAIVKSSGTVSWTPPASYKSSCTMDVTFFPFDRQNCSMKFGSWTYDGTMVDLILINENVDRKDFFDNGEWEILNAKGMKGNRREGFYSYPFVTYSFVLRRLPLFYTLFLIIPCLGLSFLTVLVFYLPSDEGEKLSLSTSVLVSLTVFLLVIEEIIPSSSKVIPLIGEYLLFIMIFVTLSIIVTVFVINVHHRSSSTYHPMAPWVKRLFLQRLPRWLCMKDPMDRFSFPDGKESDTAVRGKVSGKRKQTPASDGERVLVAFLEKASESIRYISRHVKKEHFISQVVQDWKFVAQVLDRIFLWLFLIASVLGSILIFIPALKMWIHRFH
# Sequence of rα6/α3β2β3 nAChR (P43143 whole entry, looked up): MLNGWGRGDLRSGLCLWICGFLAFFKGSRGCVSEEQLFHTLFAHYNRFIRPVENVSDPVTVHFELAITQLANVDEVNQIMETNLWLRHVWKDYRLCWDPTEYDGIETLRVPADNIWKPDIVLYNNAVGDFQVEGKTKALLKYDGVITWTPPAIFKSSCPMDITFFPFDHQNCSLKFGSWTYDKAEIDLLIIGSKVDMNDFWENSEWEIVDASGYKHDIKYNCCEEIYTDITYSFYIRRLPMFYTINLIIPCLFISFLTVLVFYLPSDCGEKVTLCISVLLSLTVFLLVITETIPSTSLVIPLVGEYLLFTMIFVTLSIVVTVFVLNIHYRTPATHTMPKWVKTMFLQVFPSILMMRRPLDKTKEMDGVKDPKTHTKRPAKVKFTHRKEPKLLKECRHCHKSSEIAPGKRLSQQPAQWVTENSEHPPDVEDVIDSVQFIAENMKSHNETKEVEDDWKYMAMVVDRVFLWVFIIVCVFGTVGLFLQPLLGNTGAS
# Sequence of rα3β2 nAChR (P04757 26-499 limits assumed): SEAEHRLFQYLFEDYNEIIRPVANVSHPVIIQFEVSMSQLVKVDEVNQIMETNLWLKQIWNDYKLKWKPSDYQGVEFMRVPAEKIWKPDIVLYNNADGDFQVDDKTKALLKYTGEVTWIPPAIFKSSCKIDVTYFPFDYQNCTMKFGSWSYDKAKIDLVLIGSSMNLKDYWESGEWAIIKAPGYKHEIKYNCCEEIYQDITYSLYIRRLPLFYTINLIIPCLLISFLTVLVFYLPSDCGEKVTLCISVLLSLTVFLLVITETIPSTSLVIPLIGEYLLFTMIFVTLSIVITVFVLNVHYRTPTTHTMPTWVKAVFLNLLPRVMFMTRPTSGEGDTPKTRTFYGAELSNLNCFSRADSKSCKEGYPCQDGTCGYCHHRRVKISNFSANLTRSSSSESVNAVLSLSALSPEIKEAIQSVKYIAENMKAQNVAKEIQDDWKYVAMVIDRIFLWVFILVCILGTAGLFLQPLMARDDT
# Sequence of rα3β2 nAChR (P12390 25-500 limits assumed): as the sequence (P12390 25-500 limits assumed) above
# Sequence of rα2β4 nAChR (P12389 28-511 limits assumed): as the sequence (P12389 28-511 limits assumed) above
# Sequence of rα2β4 nAChR (P12392 21-495 limits assumed): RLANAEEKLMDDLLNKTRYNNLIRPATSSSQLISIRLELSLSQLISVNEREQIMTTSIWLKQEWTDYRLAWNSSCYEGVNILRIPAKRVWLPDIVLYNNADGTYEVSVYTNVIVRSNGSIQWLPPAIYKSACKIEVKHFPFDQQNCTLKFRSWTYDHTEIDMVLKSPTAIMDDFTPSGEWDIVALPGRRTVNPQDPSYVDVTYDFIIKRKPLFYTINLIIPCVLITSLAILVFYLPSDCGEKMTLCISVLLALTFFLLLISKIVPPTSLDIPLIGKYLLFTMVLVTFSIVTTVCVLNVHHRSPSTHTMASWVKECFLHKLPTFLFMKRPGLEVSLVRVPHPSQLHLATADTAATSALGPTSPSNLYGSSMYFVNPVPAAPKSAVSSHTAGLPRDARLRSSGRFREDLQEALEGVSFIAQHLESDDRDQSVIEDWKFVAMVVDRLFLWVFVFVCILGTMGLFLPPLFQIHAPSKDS
# Sequence of rα6/α3β4 nAChR (P04757 whole entry, looked up): as the sequence (P04757 whole entry, looked up) above
# Sequence of rα6/α3β4 nAChR (P12392 whole entry, looked up): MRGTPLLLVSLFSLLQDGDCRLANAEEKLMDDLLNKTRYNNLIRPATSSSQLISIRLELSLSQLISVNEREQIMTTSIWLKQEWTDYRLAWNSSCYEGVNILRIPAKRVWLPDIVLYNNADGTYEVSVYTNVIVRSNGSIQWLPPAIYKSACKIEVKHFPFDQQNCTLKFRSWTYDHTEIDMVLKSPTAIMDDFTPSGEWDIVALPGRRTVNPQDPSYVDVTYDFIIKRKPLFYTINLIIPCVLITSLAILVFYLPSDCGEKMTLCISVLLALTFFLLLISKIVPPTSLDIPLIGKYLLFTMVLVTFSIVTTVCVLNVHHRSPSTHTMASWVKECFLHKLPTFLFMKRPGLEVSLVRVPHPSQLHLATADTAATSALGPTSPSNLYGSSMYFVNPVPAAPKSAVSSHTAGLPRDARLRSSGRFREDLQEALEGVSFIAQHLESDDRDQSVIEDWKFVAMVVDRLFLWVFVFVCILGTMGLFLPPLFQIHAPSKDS
# Sequence of rα6/α3β4 nAChR (P43143 whole entry, looked up): as the sequence (P43143 whole entry, looked up) above
# Sequence of rα3β4 nAChR (P04757 26-499 limits assumed): as the sequence (P04757 26-499 limits assumed) above
# Sequence of rα3β4 nAChR (P12392 21-495 limits assumed): as the sequence (P12392 21-495 limits assumed) above
smiles,measurement,setting,value
CC[C@H](C)[C@@H]1NC(=O)[C@H](CC(=O)O)NC(=O)[C@H](CCC(N)=O)NC(=O)[C@H](CC(N)=O)NC(=O)[C@H](CC(N)=O)NC(=O)CNC(=O)[C@H](C)NC(=O)[C@@H]2CSSC[C@H](NC(=O)CN)C(=O)N[C@@H](CSSC[C@@H](C(N)=O)NC1=O)C(=O)N[C@@H](CO)C(=O)N[C@@H](Cc1c[nH]cn1)C(=O)N1CCC[C@H]1C(=O)N[C@@H](C)C(=O)N2 [LvIF],IC50,rα3β2 nAChR,0.00898 µM
same,inhibition at 0.01 µM,rα3β2 nAChR; read-out: inhibition at 10 nM,~57%
same,inhibition at 10 µM,rα3β2 nAChR; read-out: inhibition at 10 μM,98.3 ± 0.6%
same,IC50,rα9α10 nAChR,> 10 µM
same,inhibition at 10 µM,rα9α10 nAChR; read-out: inhibition at 10 μM,1.31 ± 5.2%
same,IC50,rα7 nAChR,> 10 µM
same,inhibition at 10 µM,rα7 nAChR; read-out: inhibition at 10 μM,12.3 ± 4.2%
same,IC50,rα3β4 nAChR,> 10 µM
same,inhibition at 1 μM,rα3β4 nAChR,no inhibition
same,IC50,rα6/α3β4 nAChR,> 10 µM
same,inhibition at 10 µM,rα6/α3β4 nAChR; read-out: inhibition at 10 μM,2.3 ± 3.3%
same,IC50,rα4β2 nAChR,> 10 µM
same,inhibition at 10 µM,rα4β2 nAChR; read-out: inhibition at 10 μM,4.6 ± 2.5%
same,IC50,rα2β4 nAChR,> 10 µM
same,inhibition at 10 µM,rα2β4 nAChR; read-out: inhibition at 10 μM,9.5 ± 2.4%
same,IC50,rα6/α3β2β3 nAChR,0.0144 µM
same,inhibition at 0.01 µM,rα6/α3β2β3 nAChR; read-out: inhibition at 10 nM,~39%
same,inhibition at 10 µM,rα6/α3β2β3 nAChR; read-out: inhibition at 10 μM,98.3 ± 0.3%
same,IC50,rα4β4 nAChR,> 10 µM
same,inhibition at 10 µM,rα4β4 nAChR; read-out: inhibition at 10 μM,8.6 ± 4.2%
same,IC50,rα2β2 nAChR,> 10 µM
same,inhibition at 10 µM,rα2β2 nAChR; read-out: inhibition at 10 μM,6.7 ± 4.5%
